The values that follow come from article PMC6261043, “Characterization of a heat responsive UDP: Flavonoid glucosyltransferase gene in tea plant (Camellia sinensis)” (PLoS ONE, 2018).

For this experiment, the target named is T1, UGT73A17 (rUGT73A17, CsUGT73A17) (Camellia sinensis, UniProt W6JMN6, L296I/A466V, form not given).
T1 construct: gene CsUGTC1; full-length ORF (1422 bp, 473 residues) from tea EST library, N-terminal MBP fusion (pMAL-c2X), E. coli Novablue, purified
T1 sequence (W6JMN6 entry or part of it L296I/A466V, form open): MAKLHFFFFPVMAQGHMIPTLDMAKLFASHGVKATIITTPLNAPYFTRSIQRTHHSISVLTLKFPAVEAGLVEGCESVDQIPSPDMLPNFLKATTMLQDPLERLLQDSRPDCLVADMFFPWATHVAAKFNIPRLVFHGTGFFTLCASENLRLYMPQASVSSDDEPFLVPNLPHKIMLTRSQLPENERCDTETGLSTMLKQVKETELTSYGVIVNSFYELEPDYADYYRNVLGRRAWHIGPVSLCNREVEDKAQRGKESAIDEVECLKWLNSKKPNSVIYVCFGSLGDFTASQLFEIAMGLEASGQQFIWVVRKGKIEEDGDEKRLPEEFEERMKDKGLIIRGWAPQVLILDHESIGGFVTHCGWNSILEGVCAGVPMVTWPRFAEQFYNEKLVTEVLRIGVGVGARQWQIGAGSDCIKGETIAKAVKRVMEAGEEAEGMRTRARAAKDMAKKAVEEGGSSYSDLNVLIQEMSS
Nature of the experiment: HPLC product quantification, Lineweaver-Burk. The class given is biochemical. The settings on record: UDP-glucose as sugar donor, 100 mM Tris-HCl pH 7.0, 30°C.
Take `O=c1cc(-c2ccc(O)cc2)oc2cc(O)cc(O)c12` [apigenin]: the Km (commonly the substrate concentration at which the rate is half of its maximum) turned out to be 5.5 ± 1.5 µM.
The result for `O=C(O[C@H]1Cc2c(O)cc(O)cc2O[C@H]1c1ccc(O)c(O)c1)c1cc(O)c(O)c(O)c1` [epicatechin gallate] reads 77 ± 5.9 µM.
The result for `O=c1c(O)c(-c2ccc(O)cc2)oc2cc(O)cc(O)c12` [kaempferol] reads 5.2 µM; that for `O=c1cc(-c2ccc(O)c(O)c2)oc2cc(O)cc(O)c12` [luteolin], 3.2 µM; that for `O=c1c(O)c(-c2cc(O)c(O)c(O)c2)oc2cc(O)cc(O)c12` [myricetin], 8.8 ± 4.3 µM.
The result for `O=C1C[C@@H](c2ccc(O)cc2)Oc2cc(O)cc(O)c21` [naringenin] reads 9.5 ± 5 µM; that for `O=c1cc(-c2cc(O)c(O)c(O)c2)oc2cc(O)cc(O)c12` [tricetin], 4.6 ± 0.71 µM.
